Assay results as given in patent US20240050385A1, “METHODS OF TREATING LEPTOMENINGEAL METASTASIS” (MEMORIAL SLOAN-KETTERING CANCER CENTER, priority 2020, published 2024).

Columns and labels:
[1] = tested on: LCN2; assay: LCN2 ELISA after recombinant cytokine stimulation; format: cell-based; details: recombinant cytokine added to artificial CSF; PC9, MDA231 or LLC LeptoM cells; ELISA at 48 h
Procedure: FIG. 11A-11E. Proinflammatory cytokines in human CSF. (A) LCN2 was quantified by ELISA in the CSF from patients harboring LM was treated with neutralizing antibody against IL-6 or IL-8 and added to MDA231-LeptoM cells for 12 hours. N=3 in each of two independent experiments. NS=not significant, * indicates p<0.05, ** indicates p<0.01, *** indicates p<0.001 (unpaired t test). Data represent mean±SEM. (B) Evaluation of LCN2 expression by ELISA with the treatment of pro-inflammatory cytokines IL-6, IL-8, IL-1β and TNF in PC9-Par and PC9-LeptoM cells. LCN2 expression was determined by ELISA of conditioned media collected 48 hours after recombinant cytokine stimulation. N=3 in each of two independent experiments. *indicates p<0.05 (unpaired t test). Data represent mean±SEM. (C) LCN2 expression by ELISA 48 h after treatment of MDA-Par and MDA-LeptoM cells with IL-6, IL-8, IL-1β and TNF. LCN2 expression by ELISA in conditioned media for 48 hours after recombinant cytokines stimulation. N=3 in each of two independent experiments. *indicates p<0.05 (unpaired t test). Data represent mean±SEM. (D) LCN2 expression by ELISA 48 h after treatment of LLC-Par and LLC-LeptoM cells with IL-6, IL-1β and TNF. N=3 in each of two independent experiments. * indicates p<0.05 (unpaired t test). Data represent mean±SEM. (E) Visualization of macrophage cells in first two diffusion components. First diffusion component is best matched by Hypoxia as indicated with GSEA es=0.6, fdr=0 and M1 phenotype es=−0.5, fdr=0.11, while second diffusion component is best matched by M2 phenotype es=0.7, fdr=0. MAGIC imputed gene set expression was standardized to zero mean and unit of standard deviation.
Secreted protein detection. Human LCN2 (Abcam, ab215541), Hepcidin (R&D, DHP250), Transferrin (Abcam, ab187391), Ferritin (LSBio, LS-F428-1), IL-6 (R&D, D6050), IL-8 (R&D, D8000C), IL-1β (R&D, DLB50), TNF expression (Abcam, ab181421) in CSF patient samples or cell culture supernatants were measured using ELISA kits according to manufacturer's instructions. […]

[2] = tested on: PC9-LeptoM cells; assay: Cell associated iron and viability of PC9-LeptoM cells after knockdown of SLC22A17 or LCN2; format: cell-based, human; details: 100 μg/mL diferric Tf added in vitro
From the text: (§1) FIG. 14A-14K. Leptomeningeal metastasis requires iron transporters. (A) Total iron measured by mass spectroscopy in CSF cancer patients with and without LM. Presence of LM is indicated +/−. N=11 cancer patients without LM and n=12 cancer patients with LM. * indicates p<0.05 (unpaired t test). Data represent mean±SEM. (B) LCN2 iron binding assay in patient CSF. Non-LCN2-bound iron [NLBI] and LCN2-bound iron [LBI] was detected in the CSF from cancer patients with or without LM. N=10. **** indicates p<0.0001 (unpaired t test). Data represent mean±SEM. (C) Expression of genes associated with iron transport in parental cells and LeptoM cells by bulk RNA sequencing. N=2 in PC9 cells and n=3 in LeptoM cells. Presented as log 2 fold change in each group with cutoff <20 normalized counts. (D) Tumor growth in mice injected with PC9-LeptoM cells expressing shCtl or shLCN2. Treatment with either vehicle or 5 mg/Ml holo-transferrin (diferric [Tf]) was commenced on day 1 and continued every third day for a total of 7 doses. Left: Histogram represents in vivo BLI imaging post-inoculation at day 21. […] Iron measured by colorimetric assay. […] Intracellular iron was determined by colorimetric assay. […]
Cell Viability Assay. […] The CellTiter-Glo Luminescent Cell Viability Assay (Promega G9241) was used to quantify viable cells in culture according to the manufacturer's protocols. […]

[3] = tested on: LeptoM cells expressing shLCN2; assay: Tumor growth in mice injected with LeptoM cells expressing shLCN2, treated with holo-transferrin; format: in vivo, mouse; details: 5 mg/mL holo-transferrin intracisternal every third day, 7 doses
From the text: as §1, with “21. N=6-8 per group in each of two independent experiments. Right: Representative BLI images. Sh1+Veh vs sh1+Tf, p=0.2087. sh2+Veh vs sh2+Tf, p=0.0604. Data represent mean±SEM.” for “21.”

Substance: IL-1β: recombinant IL-1β (R&D) added to culture media
- expression of LCN2 [1]: induced expression of LCN2

Substance: IL-6: recombinant IL-6 (R&D) added to culture media
- expression of LCN2 [1]: induced expression of LCN2

Substance: IL-8: recombinant IL-8 (R&D) added to culture media
- expression of LCN2 [1]: induced expression of LCN2

Substance: transferrin: iron-loaded (diferric) holo-transferrin, Invitria 777TRF029
- cell growth after SLC22A17 or LCN2 knockdown [2]: rescued
- intracellular iron accumulation after SLC22A17 or LCN2 knockdown [2]: rescued
- rescue of LCN2 knockdown by shRNA in vivo (tumor growth, survival) [3]: partially rescued
